The values that follow come from US8901305B2, “Aryl lactam kinase inhibitors” (Bristol-Myers Squibb Company, priority 2012, dated 2014).

Broadly, the IC50 is the point on the concentration scale where inhibition reaches its midpoint.

The structures appear in SMILES notation.

The test has as its target T1, GST-Xa-hAAK1 (Homo sapiens, UniProt Q2M2I8).
T1 construct: made in house
Put plainly: AAK1 kinase assay. The test is classed as biochemical. As to conditions: ATP 22 μM, 3 hours at room temperature. The procedure:
The assays were performed in U-bottom 384-well plates. […] The reactions were initiated by the combination of bacterially expressed, GST-Xa-hAAK1 with substrates and test compounds. The reactions were incubated at room temperature for 3 hours and terminated by adding 60 μl of 35 mM EDTA buffer to each sample. The reactions were analyzed on the Caliper LabChip 3000 (Caliper, Hopkinton, Mass.) by electrophoretic separation of the fluorescent substrate and phosphorylated product. […] Compounds were dissolved at 10 mM in dimethylsulfoxide (DMSO) and evaluated at eleven concentrations. IC50 values were derived by non-linear regression analysis.

T1 sequence (Q2M2I8 whole entry): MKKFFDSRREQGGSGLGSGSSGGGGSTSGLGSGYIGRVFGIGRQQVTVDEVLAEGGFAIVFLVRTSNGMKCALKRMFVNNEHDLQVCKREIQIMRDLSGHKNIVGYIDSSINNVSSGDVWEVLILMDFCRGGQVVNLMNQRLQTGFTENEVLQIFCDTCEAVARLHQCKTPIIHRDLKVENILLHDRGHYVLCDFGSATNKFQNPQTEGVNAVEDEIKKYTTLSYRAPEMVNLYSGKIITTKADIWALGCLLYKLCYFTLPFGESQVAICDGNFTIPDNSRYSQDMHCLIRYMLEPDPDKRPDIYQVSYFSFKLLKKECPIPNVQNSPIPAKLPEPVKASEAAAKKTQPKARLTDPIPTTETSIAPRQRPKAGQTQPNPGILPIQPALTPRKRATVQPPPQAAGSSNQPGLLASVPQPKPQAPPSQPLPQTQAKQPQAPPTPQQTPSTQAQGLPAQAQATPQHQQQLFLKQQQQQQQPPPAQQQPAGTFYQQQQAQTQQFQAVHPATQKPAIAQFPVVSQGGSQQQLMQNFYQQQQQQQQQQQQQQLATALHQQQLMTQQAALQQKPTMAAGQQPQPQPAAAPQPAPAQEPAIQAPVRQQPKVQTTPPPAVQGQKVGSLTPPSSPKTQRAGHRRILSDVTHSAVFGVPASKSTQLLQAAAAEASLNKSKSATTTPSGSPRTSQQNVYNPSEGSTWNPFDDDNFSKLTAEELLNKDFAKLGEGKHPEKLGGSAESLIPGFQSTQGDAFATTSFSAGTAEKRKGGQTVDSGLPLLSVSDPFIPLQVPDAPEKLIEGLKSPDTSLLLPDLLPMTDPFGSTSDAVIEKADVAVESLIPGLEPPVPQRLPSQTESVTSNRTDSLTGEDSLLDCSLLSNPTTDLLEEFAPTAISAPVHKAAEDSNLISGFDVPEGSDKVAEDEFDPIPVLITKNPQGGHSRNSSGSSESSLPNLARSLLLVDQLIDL

On to `Cc1cc2c(cn1)c(=O)n(C)c1cc(OC[C@@H](N)CC(C)C)ccc21` [Example 67, (S)-8-((2-amino-4-methylpentyl)oxy)-2,6 dimethylbenzo[c][2,7]naphthyridin-5(6H)-one], for which the IC50 turned out to be 893 nM.
The same measure, in the same setting: as for `Cc1nccc2c1c(=O)n(C)c1c(Cl)c(OC[C@@H](N)CC(C)C)ccc21` [Example 61, (S)-8-((2-amino-4-methylpentyl)oxy)-7-chloro-4,6-dimethylbenzo[c][2,7]naphthyridin-5(6H)-one], the figure is 126 nM; as for `CC(C)C[C@H](N)COc1cc2c(cc1O)c1ccncc1c(=O)n2C` [Example 7, (S)-8-(2-amino-4-methylpentyloxy)-9-hydroxy-6-methylbenzo[c][2,7]naphthyridin-5(6H)-one], 11 nM.
For `CN[C@H](COc1ccc2c3ccncc3c(=O)n(C)c2c1)CC(C)C` [Example 54, (S)-6-methyl-8-((4-methyl-2-(methylamino)pentyl)oxy)benzo[c][2,7]naphthyridin-5(6H)-one], the IC50 (given as IC50 range) is 10 to 100 nM.
For `CC(C)OC[C@H](N)COc1ccc2c3ccncc3c(=O)n(C)c2c1` [Example 53, (S)-8-(2-amino-3-isopropoxypropoxy)-6-methylbenzo[c][2,7]naphthyridin-5(6H)-one], the IC50 is 119 nM.
For the molecule `Cc1nccc2c1c(=O)n(C)c1cc(OC[C@@H](N)CC(C)C)c(-n3cccn3)cc21` [Example 74], the IC50 (given as IC50 range) was 1 to 10 nM.
For `Cc1nccc2c1c(=O)n(C)c1cc(OCC(N)CC(F)(F)F)ccc21` (single isomer, unassigned) [Example 92], the IC50 (given as IC50 range) lay in the range of 1 to 10 nM.
Turning to `COCCn1c(=O)c2cnccc2c2ccc(OC[C@@H](N)CC(C)C)cc21` [Example 12, (S)-8-((2-amino-4-methylpentyl)oxy)-6-(2-methoxyethyl)benzo[c][2,7]naphthyridin-5(6H)-one], the IC50 stood at 85 nM.
With `CC(C)C[C@H](N)COc1ccc2c3ccncc3c(=O)n(C(C)C)c2c1` [Example 8, (S)-8-((2-amino-4-methylpentyl)oxy)-6-isopropylbenzo[c][2,7]naphthyridin-5(6H)-one], under “given as IC50 range”, the IC50 was 10 to 100 nM.
As to `Cc1nccc2c1c(=O)n(C)c1cc(OC[C@@H](N)CC(C)C)c(OC(F)F)cc21` [Example 90, (S)-8-((2-amino-4-methylpentyl)oxy)-9-(difluoromethoxy)-4,6-dimethylbenzo[c][2,7]naphthyridin-5(6H)-one], under “given as IC50 range”, the IC50 was 10 to 100 nM.
For the molecule `Cc1nccc2c1c(=O)n(C)c1cc(OC[C@@H](N)CC(C)C(F)(F)F)ccc21` (single isomer, unassigned) [Example 87], the IC50 (given as IC50 range) lay in the range of 1 to 10 nM.
For `Cc1nccc2c1c(=O)n(C)c1cc(OC[C@@H](N)CC3CC3)ccc21` [Example 21, (S)-8-(2-amino-3-cyclopropylpropoxy)-4,6-dimethylbenzo[c][2,7]naphthyridin-5(6H)-one], the IC50 amounted to 23 nM.
`Cc1nccc2c1c(=O)n(C)c1cc(OC[C@@H](N)CC(C)C)c(S(C)(=O)=O)cc21` [Example 76, (S)-8-(2-amino-4-methylpentyloxy)-4,6-dimethyl-9-(methylsulfonyl)benzo[c][2,7]naphthyridin-5(6H)-one]: where the note is “given as IC50 range”, the IC50 lay within 100 to 2000 nM.
In the case of `Cn1c(=O)c2cnccc2c2ccc(OCC3CCCCN3)cc21` (centres unmarked) [Example 57, 6-methyl-8-(piperidin-2-ylmethoxy)benzo[c][2,7]naphthyridin-5(6H)-one], the IC50 was found to be 229 nM.
The same measure, in the same setting: as for `Cc1nccc2c1c(=O)n(C)c1cc(OC[C@H](CC(C)C)N(C)C)ccc21` [Example 40, (S)-8-((2-(dimethylamino)-4-methylpentyl)oxy)-4,6-dimethylbenzo[c][2,7]naphthyridin-5(6H)-one], the figure is 123 nM.
With `Cc1nccc2c1c(=O)n(C)c1cc(OCC(N)CC(F)(F)F)ccc21` (single isomer, unassigned) [Example 91], the IC50 (given as IC50 range) lay within 10 to 100 nM.
For the molecule `Cc1nccc2c1c(=O)n(C)c1cc(OC[C@@H](N)CC3CCC3)ccc21` [Example 22, (S)-8-(2-amino-3-cyclobutylpropoxy)-4,6-dimethylbenzo[c][2,7]naphthyridin-5(6H)-one], the IC50 is 12 nM.
In the case of `Cc1nccc2c1c(=O)n(C)c1cc(OC[C@@H](N)CC(C)C)c(C(=O)N(C)C)cc21` [Example 96, (S)-8-((2-amino-4-methylpentyl)oxy)-N,N,4,6-tetramethyl-5-oxo-5,6-dihydrobenzo[c][2,7]naphthyridine-9-carboxamide], for the setting “given as IC50 range”, the IC50 is 100 to 2000 nM.
`Cc1nccc2c1c(=O)n(C)c1cc(OC[C@@H](N)CC(C)C)c(C(C)(C)O)cc21` [Example 35, (S)-8-((2-amino-4-methylpentyl)oxy)-9-(2-hydroxypropan-2-yl)-4,6-dimethylbenzo[c][2,7]naphthyridin-5(6H)-one]: the IC50 is 114 nM.
In the case of `COC[C@H](N)COc1ccc2c3ccncc3c(=O)n(C)c2c1` [Example 69, (S)-8-(2-amino-3-methoxypropoxy)-6-methylbenzo[c][2,7]naphthyridin-5(6H)-one], the IC50 (given as IC50 range) was 10 to 100 nM.
Regarding `COc1cc2c3ccnc(C)c3c(=O)n(C)c2cc1OCC(C)(N)CC(C)C` (centres unmarked) [Example 34, 8-((2-amino-2,4-dimethylpentyl)oxy)-9-methoxy-4,6-dimethylbenzo[c][2,7]naphthyridin-5(6H)-one], the IC50 came out at 5.9 nM.
As to `Cc1nccc2c1c(=O)n(C)c1cc(OC[C@@H](N)CC(C)C)c(C(C)O)cc21` (single isomer, unassigned) [Example 30], the IC50 came to 1.7 nM.
The same measure, in the same setting: the value for `CC(C)C[C@H](N)COc1ccc2c3ccncc3c(=O)n(CCO)c2c1` [Example 44, (S)-8-(2-amino-4-methylpentyloxy)-6-(2-hydroxyethyl)benzo[c][2,7]naphthyridin-5(6H)-one] was 41 nM.
For the molecule `Cc1nccc2c1c(=O)n(C)c1cc(OC[C@@H](N)CC(C)C)c(CO)cc21` [Example 71, (S)-8-(2-amino-4-methylpentyloxy)-9-(hydroxymethyl)-4,6-dimethylbenzo[c][2,7]naphthyridin-5(6H)-one], the IC50 (given as IC50 range) is 1 to 10 nM.
Same read-out and setting: as for `Cc1nccc2c1c(=O)[nH]c1c(F)c(OCC(C)(N)CC(C)C)ccc12` (centres unmarked) [Example 105, 8-(2-amino-2,4-dimethylpentyloxy)-7-fluoro-4-methylbenzo[c][2,7]naphthyridin-5(6H)-one], the figure is 10 to 100 nM.
For the molecule `CCc1cc2c3ccnc(C)c3c(=O)n(C)c2cc1OC[C@@H](N)CC(C)C` [Example 36, (S)-8-((2-amino-4-methylpentyl)oxy)-9-ethyl-4,6-dimethylbenzo[c][2,7]naphthyridin-5(6H)-one], the IC50 came out at 0.35 nM.
`Cc1nccc2c1c(=O)n(C)c1cc(OC[C@@H](N)CC(C)C)c(C(C)O)cc21` (single isomer, unassigned) [Example 31]: the IC50 (given as IC50 range) fell in the range of 10 to 100 nM.
Still for that read-out and setting: the value for `CN[C@H](COc1ccc2c3ccnc(C)c3c(=O)n(C)c2c1)CC(C)C` [Example 95, (S)-4,6-dimethyl-8-(4-methyl-2-(methylamino)pentyloxy)benzo[c][2,7]naphthyridin-5(6H)-one] was 10 to 100 nM.
Regarding `COc1ccc(CNc2nccc3c2c(=O)n(C)c2cc(OC[C@@H](N)CC(C)C)ccc32)cc1` [Example 50, (S)-8-((2-amino-4-methylpentyl)oxy)-4-((4-methoxybenzyl)amino)-6-methylbenzo[c][2,7]naphthyridin-5(6H)-one], the IC50 was 33 nM.
As for `CC(=O)Nc1cc2c(cn1)c(=O)n(C)c1cc(OC[C@@H](N)CC(C)C)ccc21` [Example 18, (S)—N-(8-(2-amino-4-methylpentyloxy)-6-methyl-5-oxo-5,6-dihydrobenzo[c][2,7]naphthyridin-2-yl)acetamide], for the setting “given as IC50 range”, the IC50 fell in the range of 100 to 2000 nM.
The same measure, in the same setting: the value for `CC(C)C[C@H](N)COc1ccc2c3ccnc(C(F)F)c3c(=O)n(C)c2c1` [Example 60, (S)-8-(2-amino-4-methylpentyloxy)-4-(difluoromethyl)-6-methylbenzo[c][2,7]naphthyridin-5(6H)-one] was 100 to 2000 nM.
On to `CC(C)CC(C)(N)COc1ccc2c3ccncc3c(=O)n(C)c2c1` (centres unmarked) [Example 28, 8-((2-amino-2,4-dimethylpentyl)oxy)-6-methylbenzo[c][2,7]naphthyridin-5(6H)-one], for which the IC50 amounted to 1.1 nM.
For `Cn1c(=O)c2cnccc2c2ccc(OC[C@@H](N)CC(C)(F)F)cc21` [Example 55, (S)-8-((2-amino-4,4-difluoropentyl)oxy)-6-methylbenzo[c][2,7]naphthyridin-5(6H)-one], the 50% inhibitory concentration (IC50) (given as IC50 range) lay in the range of 10 to 100 nM.
Same read-out and setting: as for `COc1cc2c3ccnc(C)c3c(=O)n(C)c2cc1OC[C@@H](N)CC(C)C` [Example 89, (S)-8-((2-amino-4-methylpentyl)oxy)-9-methoxy-4,6-dimethylbenzo[c][2,7]naphthyridin-5(6H)-one], the figure is 1 to 10 nM; as for `Cc1nccc2c1c(=O)[nH]c1c(F)c(OC[C@@H](N)CC(C)C)c(Br)cc12` [Example 100, (S)-8-(2-amino-4-methylpentyloxy)-9-bromo-7-fluoro-4-methylbenzo[c][2,7]naphthyridin-5(6H)-one], 1 to 10 nM.
Turning to `Cn1c(=O)c2cnccc2c2ccc(OCC(N)CC(F)(F)F)cc21` (centres unmarked) [Example 93, 8-(2-amino-4,4,4-trifluorobutoxy)-6-methylbenzo[c][2,7]naphthyridin-5(6H)-one], the IC50 (given as IC50 range) was in the range of 10 to 100 nM.
Consider `CC(C)C[C@H](N)COc1ccc2c3ccncc3c(=O)n(CC(F)(F)F)c2c1` [Example 45, (S)-8-(2-amino-4-methylpentyloxy)-6-(2,2,2-trifluoroethyl)benzo[c][2,7]naphthyridin-5(6H)-one], for which the half-maximal inhibitory concentration (IC50) is 29 nM.
Regarding `Cc1cc2c(cn1)c(=O)n(C)c1cc(OC[C@@H](N)CC(C)C)c(Cl)cc21` [Example 68, (S)-8-((2-amino-4-methylpentyl)oxy)-9-chloro-2,6-dimethylbenzo[c][2,7]naphthyridin-5(6H)-one], the IC50 (given as IC50 range) lay within 10 to 100 nM.
